According to the supplement of paper PMC11451515:

What was measured:
Conditions in all cases: 48 h
P12-Ichikawa [1] = experiment: AUC of viability dose-response curve (% viability x log10 dose units); higher = less sensitive
Method in brief: (§1)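 Library compounds in DMSO were applied for 48 h at 37°C at 11 threefold doses (47 μM to 0.79 nM) to medium-adapted leukemia cells in 1536-well plates holding 500 or 1000 cells/well. Luminescence from CellTiter-Glo One was normalised plate by plate against DMSO and cell-free wells. Area under the curve came from trapezoidal integration of a log-logistic fit, after scaling curves that rose above full viability and discarding those that failed quality control. The fit had four parameters and used log10 doses.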

SEM cells [2] = experiment: as above
Method in brief: as §1

NOMO1 [3] = experiment: as above
Method in brief: as §1

P12-Ichikawa [4] = experiment: cell viability relative to DMSO control; higher = less cytotoxic
Method in brief: (§2)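 Library compounds in DMSO were pin-dosed into 1536-well plates (5 μl) holding NOMO1 or SEM (500 cells/well) or P12-Ichikawa (1000 cells/well) leukemia cells, across an 11-point threefold series of 47 μM to 0.79 nM. Each cell line had been adapted for at least four passages in each medium. CellTiter-Glo One luminescence was read after 48 h at 37°C. Viability is the per-plate percentage relative to DMSO wells, with cell-free wells as background.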

SEM cells [5] = experiment: as above
Method in brief: as §2

NOMO1 [6] = experiment: as above
Method in brief: as §2

CNCCCC12CCC(c3ccccc31)c1ccccc12
AUC of viability dose-response curve
Conditions	NOMO1 [3]	P12-Ichikawa [1]	SEM cells [2]
HPLM + 10% dialyzed FBS	429	442	453
RPMI 5 mM glucose + 10% FBS	426	439	443
RPMI 5 mM glucose + 10% dialyzed FBS	411	428	469

cell viability [%]
Conditions	NOMO1 [6]	P12-Ichikawa [4]	SEM cells [5]
HPLM + 10% dialyzed FBS, 0.000781 µM	106	93.5	96.5
HPLM + 10% dialyzed FBS, 0.00234 µM	102	95.7	108
HPLM + 10% dialyzed FBS, 0.00702 µM	107	96.7	105
HPLM + 10% dialyzed FBS, 0.0211 µM	110	95.5	99.7
HPLM + 10% dialyzed FBS, 0.0632 µM	111	103	116
HPLM + 10% dialyzed FBS, 0.19 µM	99.9	96.2	114
HPLM + 10% dialyzed FBS, 0.569 µM	101	95.8	110
HPLM + 10% dialyzed FBS, 1.71 µM	90	92.7	105
HPLM + 10% dialyzed FBS, 5.12 µM	95.2	87.8	93.5
HPLM + 10% dialyzed FBS, 15.4 µM	63.5	85.8	89.6
HPLM + 10% dialyzed FBS, 46.1 µM	18.3	63.5	59.5
RPMI 5 mM glucose + 10% FBS, 0.000781 µM	104	94.1	87.3
RPMI 5 mM glucose + 10% FBS, 0.00234 µM	94.9	99.5	97.3
RPMI 5 mM glucose + 10% FBS, 0.00702 µM	92.2	102	98.2
RPMI 5 mM glucose + 10% FBS, 0.0211 µM	97.2	103	99.4
RPMI 5 mM glucose + 10% FBS, 0.0632 µM	95.2	104	76.6
RPMI 5 mM glucose + 10% FBS, 0.19 µM	84.4	95.9	104
RPMI 5 mM glucose + 10% FBS, 0.569 µM	85.8	91.8	106
RPMI 5 mM glucose + 10% FBS, 1.71 µM	98.3	90.2	100
RPMI 5 mM glucose + 10% FBS, 5.12 µM	79.2	84.4	90.5
RPMI 5 mM glucose + 10% FBS, 15.4 µM	80.9	76.6	85.2
RPMI 5 mM glucose + 10% FBS, 46.1 µM	60.6	62.6	63.8
RPMI 5 mM glucose + 10% dialyzed FBS, 0.000781 µM	94.5	93	113
RPMI 5 mM glucose + 10% dialyzed FBS, 0.00234 µM	87.9	98.2	125
RPMI 5 mM glucose + 10% dialyzed FBS, 0.00702 µM	88.2	96.6	105
RPMI 5 mM glucose + 10% dialyzed FBS, 0.0211 µM	106	101	110
RPMI 5 mM glucose + 10% dialyzed FBS, 0.0632 µM	91.6	98.3	111
RPMI 5 mM glucose + 10% dialyzed FBS, 0.19 µM	91	88.7	115
RPMI 5 mM glucose + 10% dialyzed FBS, 0.569 µM	85.1	97.7	128
RPMI 5 mM glucose + 10% dialyzed FBS, 1.71 µM	94	85.7	107
RPMI 5 mM glucose + 10% dialyzed FBS, 5.12 µM	76.2	86.5	106
RPMI 5 mM glucose + 10% dialyzed FBS, 15.4 µM	74.4	73.1	118
RPMI 5 mM glucose + 10% dialyzed FBS, 46.1 µM	38.4	54.8	75.5

OC[C@H]1O[C@H]([C@H](O)[C@@H]1O)N2\C=C/C(=O)NC2=O
AUC of viability dose-response curve
Conditions	NOMO1 [3]	P12-Ichikawa [1]	SEM cells [2]
HPLM + 10% dialyzed FBS	448	473	463
RPMI 5 mM glucose + 10% FBS	429	456	447
RPMI 5 mM glucose + 10% dialyzed FBS	455	466	450

cell viability [%]
Conditions	NOMO1 [6]	P12-Ichikawa [4]	SEM cells [5]
HPLM + 10% dialyzed FBS, 0.000781 µM	111	108	107
HPLM + 10% dialyzed FBS, 0.00234 µM	127	103	107
HPLM + 10% dialyzed FBS, 0.00702 µM	105	99.1	107
HPLM + 10% dialyzed FBS, 0.0211 µM	114	111	115
HPLM + 10% dialyzed FBS, 0.0632 µM	122	101	123
HPLM + 10% dialyzed FBS, 0.19 µM	107	104	124
HPLM + 10% dialyzed FBS, 0.569 µM	103	109	122
HPLM + 10% dialyzed FBS, 1.71 µM	119	103	103
HPLM + 10% dialyzed FBS, 5.12 µM	118	99.4	115
HPLM + 10% dialyzed FBS, 15.4 µM	95.4	110	92.7
HPLM + 10% dialyzed FBS, 46.1 µM	98.4	99.6	90.7
RPMI 5 mM glucose + 10% FBS, 0.000781 µM	89.4	104	96.8
RPMI 5 mM glucose + 10% FBS, 0.00234 µM	87.3	109	105
RPMI 5 mM glucose + 10% FBS, 0.00702 µM	95.6	103	102
RPMI 5 mM glucose + 10% FBS, 0.0211 µM	85.4	103	102
RPMI 5 mM glucose + 10% FBS, 0.0632 µM	94.7	97.6	107
RPMI 5 mM glucose + 10% FBS, 0.19 µM	96.5	104	91.9
RPMI 5 mM glucose + 10% FBS, 0.569 µM	94.6	117	114
RPMI 5 mM glucose + 10% FBS, 1.71 µM	91.4	95.3	78.3
RPMI 5 mM glucose + 10% FBS, 5.12 µM	79.4	107	93.2
RPMI 5 mM glucose + 10% FBS, 15.4 µM	91.6	96	78.3
RPMI 5 mM glucose + 10% FBS, 46.1 µM	80.8	90.8	86.1
RPMI 5 mM glucose + 10% dialyzed FBS, 0.000781 µM	93.9	101	101
RPMI 5 mM glucose + 10% dialyzed FBS, 0.00234 µM	85.1	89.1	110
RPMI 5 mM glucose + 10% dialyzed FBS, 0.00702 µM	99.8	95.9	103
RPMI 5 mM glucose + 10% dialyzed FBS, 0.0211 µM	99.3	101	106
RPMI 5 mM glucose + 10% dialyzed FBS, 0.0632 µM	95.7	102	92.8
RPMI 5 mM glucose + 10% dialyzed FBS, 0.19 µM	103	98.3	117
RPMI 5 mM glucose + 10% dialyzed FBS, 0.569 µM	104	109	108
RPMI 5 mM glucose + 10% dialyzed FBS, 1.71 µM	93.7	97.1	91
RPMI 5 mM glucose + 10% dialyzed FBS, 5.12 µM	96	96	105
RPMI 5 mM glucose + 10% dialyzed FBS, 15.4 µM	90.5	89.5	94.3
RPMI 5 mM glucose + 10% dialyzed FBS, 46.1 µM	87.8	92.4	88.3
